This passage reports Activity, ID50 and ED50 results from ChEMBL document CHEMBL1150707, “Isolation, structure, and synthesis of combretastatins A-1 and B-1, potent new inhibitors of microtubule assembly, derived from Combretum caffrum” (1987).

≈ marks a conversion by molar mass, not a printed value. Calls of active or inactive are those of the source. The rule behind the calls is not given here.

Experiment [1] is described as follows: Displacement of [3H]colchicine from tubulin after 10 mins relative to control. On the set-up: concentration or dose not given beside the values. In general terms: Displacement assays read how much labelled ligand stays bound in the presence of the test substance.
Experiment [2] in a line: Inhibition of microtubule assembly by turbidimetry.
The subject of experiment [3] is P388. The experiment can be described thus: In vivo cytotoxicity against mouse P388 cells. In kind it is functional.
In experiment [4] the test system is P388. The experiment in a line: In vivo cytotoxicity against mouse P388 cells assessed as increase in life extension at 2.75 to 11 mg/kg. The experiment is classed as functional. The conditions noted are these: dose mg/kg 2.75-11.

`COc1ccc(CCc2cc(OC)c(OC)c(OC)c2)c(O)c1O` gave an Activity in experiment [1] of 13%. Moreover, the ID50 in experiment [2] was 3 µM.

With `COc1ccc(C[C@@H](O)c2cc(OC)c(OC)c(OC)c2)cc1O`, the Activity in experiment [1] is 34%. The compound further showed an ID50 in experiment [2] of 11 µM.

`COc1ccc(/C=C\c2cc(OC)c(OC)c(OC)c2)c(O)c1O` [COMBRETASTATIN A-1]: the figures for the Activity in experiment [1] and in experiment [4] were 2.2% and 26%, respectively. In experiment [2], the ID50 is 2 µM. The same compound had an ED50 in experiment [3] of 0.99 µg/mL (≈ 2.98 µM).

As for `COc1cc2c(c(OC)c1OC)-c1ccc(OC)c(=O)cc1[C@@H](NC(C)=O)CC2`, the ID50 in experiment [2] came to 6 µM.

In the case of `COc1cc(/C=C/c2ccc(OC)c(O[Si](C)(C)C(C)(C)C)c2O[Si](C)(C)C(C)(C)C)cc(OC)c1OC`, in experiment [3], the ED50 result was “inactive”.

On to `COc1cc2c(c(OC)c1OC)-c1cc3c(cc1[C@@H](OC(C)=O)C1COC(=O)[C@H]1C2)OCO3` (some centres not stated), for which, in experiment [1], the Activity amounted to 49%. The ID50 in experiment [2] amounted to 6 µM.

`COc1cc([C@@H]2c3cc4c(cc3[C@H](O)[C@H]3COC(=O)[C@H]23)OCO4)cc(OC)c1OC` came in with an Activity in experiment [1] of 13%. The same compound showed an ID50 in experiment [2] of 3 µM.

As to `COc1cc(/C=C\c2ccc(OC)c(O[Si](C)(C)C(C)(C)C)c2O[Si](C)(C)C(C)(C)C)cc(OC)c1OC`, the ED50 entry in experiment [3] is “inactive”.

In experiment [3], `COc1cc(/C=C\c2ccc(OC)c(OC(C)=O)c2OC(C)=O)cc(OC)c1OC` came in with an ED50 of 2.7 µg/mL (≈ 6.48 µM).

Regarding `COc1cc(/C=C/c2ccc(OC)c(OC(C)=O)c2OC(C)=O)cc(OC)c1OC`, the ED50 in experiment [3] came out at 12 µg/mL (≈ 28.8 µM).
